pIC50: −log10 of the molar value. Converted amounts (≈) assume the structure as drawn.
System: HT-1080
Experiment: cells
Type: functional, cell-based
Conditions: Homo sapiens
Description: Inhibitory concentration against HT1080 cells proliferation

SMILES	pIC50
O=C(CCCCCCNC(=O)c1cc2ccccc2[nH]1)NO	6.85
O=C(CCCCCCNC(=O)C1Cc2ccccc2O1)NO (stereo unspecified)	6.12
CC(C)C[C@H]1C(=O)N2C(=O)[C@@H]1CCCCOc1ccc(cc1)C[C@H]2C(=O)NCCCCCC(=O)NO	6.60

Molecular target: Histone deacetylase
Experiment: not given
Type: protein assay, Homo sapiens
Conditions: not given

SMILES	IC50
O=C(CCCCCCNC(=O)c1ccc[nH]1)NO	524 nM
O=C(CCCCCCNC(=O)c1cccc2[nH]ccc12)NO	80.3 nM
O=C(CCCCCCNC(=O)c1cc2cc(Br)ccc2[nH]1)NO	3.5 nM
O=C(CCCCCCNC(=O)c1ccc2cc[nH]c2c1)NO	56.5 nM
COc1ccc2[nH]c(C(=O)NCCCCCCC(=O)NO)cc2c1	6.5 nM
O=C(CCCCCCC(=O)C(F)(F)F)Nc1cccc(-c2ccccc2)c1	380 nM
O=C(CCCCCCNC(=O)c1cc2ccccc2[nH]1)NO	14.6 nM
O=C(CCCCCCNC(=O)c1cc2cc(F)ccc2[nH]1)NO	5.4 nM
O=C(/C=C/CCCCOc1ccc(-c2ccccc2)cc1)C(F)(F)F	5000 nM
O=C(CCCCCCNC(=O)C1Cc2ccccc2O1)NO (stereo unspecified)	29.6 nM
O=C(CCCCCCNC(=O)c1ccc2[nH]ccc2c1)NO	31.4 nM
COc1cc(OC)c2cc(C(=O)NCCCCCCC(=O)NO)[nH]c2c1	3.1 nM
COc1ccc2oc(C(=O)NCCCCCCC(=O)NO)cc2c1	15 nM
O=C(CCCCCCNC(=O)c1ccccn1)NO	1680 nM
O=C(CCCCCCNC(=O)c1cc2cc(Cl)ccc2o1)NO	15 nM
O=C(CCCCCCNC(=O)c1ccccc1)NO	1006 nM
COc1cccc2[nH]c(C(=O)NCCCCCCC(=O)NO)cc12	3.1 nM
O=C(CCCCCCNC(=O)c1c[nH]c2ccccc12)NO	37.5 nM
O=C(CCCCCCNC(=O)c1cccc2cc[nH]c12)NO	41 nM
CC1c2ccccc2CC1C(=O)NCCCCCCC(=O)NO (stereo unspecified)	732 nM

Molecular target: Histone deacetylase
Experiment: not given
Type: protein assay, Homo sapiens
Conditions: not given
Remark: another data set of the same source

SMILES	IC50
O=C(CCCCCCN1c2cccc3cccc(c23)S1(=O)=O)NO	10 nM
C[C@H](/C=C/C=C/C(=O)NO)NC(=O)c1ccc(N(C)C)cc1	12187 nM
C[C@H](CCCCC(=O)NO)NC(=O)c1ccc(N(C)C)cc1	359 nM

Molecular target: Histone deacetylase
Experiment: Inhibitory concentration against human Histone deacetylase in Hela cells
Type: cell-based
Conditions: not given

SMILES	IC50
CC[C@H](C)[C@@H]1NC(=O)[C@H](Cc2cn(OC)c3ccccc23)NC(=O)[C@H](CCCCCC(=O)OC)NC(=O)[C@H]2CCCCN2C1=O	0.4 nM
CC[C@H](C)[C@@H]1NC(=O)[C@H](Cc2cn(OC)c3ccccc23)NC(=O)[C@H](CCCCCC(=O)C(C)F)NC(=O)[C@H]2CCCCN2C1=O (stereo partly specified)	1 nM
CC[C@H](C)[C@@H]1NC(=O)[C@H](Cc2cn(OC)c3ccccc23)NC(=O)[C@H](CCCCCCC(=O)OC)NC(=O)[C@H]2CCCCN2C1=O	7 nM
CC[C@H](C)[C@@H]1NC(=O)[C@H](Cc2cn(OC)c3ccccc23)NC(=O)[C@H](CCCCC(=O)OC)NC(=O)[C@H]2CCCCN2C1=O	74 nM
CCC(=O)C(F)CCCC[C@@H]1NC(=O)[C@H]2CCCCN2C(=O)[C@H]([C@@H](C)CC)NC(=O)[C@H](Cc2cn(OC)c3ccccc23)NC1=O (stereo partly specified)	110 nM
CC[C@H](C)[C@@H]1NC(=O)[C@H](Cc2cn(OC)c3ccccc23)NC(=O)[C@H](CCCCCC(=O)NO)NC(=O)[C@H]2CCCCN2C1=O	0.2 nM
CC[C@H](C)[C@@H]1NC(=O)[C@H](Cc2cn(OC)c3ccccc23)NC(=O)[C@H](CCCCCC(=O)C(C)O)NC(=O)[C@H]2CCCCN2C1=O (stereo partly specified)	0.3 nM
CC[C@H](C)[C@@H]1NC(=O)[C@H](Cc2cn(OC)c3ccccc23)NC(=O)[C@H](CCCCCC(=O)O)NC(=O)[C@H]2CCCCN2C1=O	15 nM
CC[C@H](C)[C@@H]1NC(=O)[C@H](Cc2cn(OC)c3ccccc23)NC(=O)[C@H](CCCCCC(=O)C2CO2)NC(=O)[C@H]2CCCCN2C1=O (stereo partly specified)	< 0.1 nM

Molecular target: Histone deacetylase
Experiment: not given
Type: protein assay, Homo sapiens
Conditions: not given
Remark: another data set of the same source

SMILES	IC50
Cn1cc(C(=O)c2ccc([N+](=O)[O-])cc2)cc1/C=C/C(=O)NO	3900 nM
Cn1cc(C(=O)c2ccc(Cl)cc2)cc1/C=C/C(=O)NO	2400 nM
Cc1ccc(C(=O)c2cc(/C=C/C(=O)NO)n(C)c2)cc1	1900 nM
Cn1cc(C(=O)c2ccc(F)cc2)cc1/C=C/C(=O)NO	3800 nM
CN(C)c1ccc(C(=O)c2cc(/C=C/C(=O)NO)n(C)c2)cc1	2400 nM
O=C(/C=C/c1cc(C(=O)c2ccccc2)c[nH]1)NO	5000 nM
O=C(NO)c1ccc(CNC(=O)c2cccc3ccccc23)cc1	830 nM
O=C(NO)c1ccc(CNC(=O)c2ccc(-c3ccccc3)cc2)cc1	240 nM
O=C(NCC1CCC(C(=O)NO)CC1)c1ccc(-c2ccccc2)cc1 (stereo unspecified)	310 nM
O=C(/C=C/c1cc(C(=O)c2ccccc2)cn1-c1ccccc1)NO	110000 nM
Cn1cc(C(=O)c2ccccc2)cc1/C=C/C(=O)NO	3800 nM
Cn1cc(C(=O)c2ccccc2)cc1CCC(=O)NO	36800 nM
O=C(NO)c1ccc(CNC(=O)c2ccc3ccccc3c2)cc1	44 nM
Cn1cc(C(=O)/C=C/c2ccccc2)cc1/C=C/C(=O)NO	1000 nM
COc1ccc(C(=O)c2cc(/C=C/C(=O)NO)n(C)c2)cc1	2900 nM
CC(C)n1cc(C(=O)c2ccccc2)cc1/C=C/C(=O)NO	53000 nM

Molecular target: Histone deacetylase
Experiment: Inhibitory concentration against isolated Histone deacetylase
Type: protein assay, Homo sapiens
Conditions: not given

SMILES	IC50
Cn1cc(C(=O)c2ccccc2)cc1/C=C/C(=N)N	23000 nM
O=C(NCCSSCCNC(=O)/C(Cc1ccc(O)c(Br)c1)=N/O)/C(Cc1ccc(O)c(Br)c1)=N/O [PSAMMAPLIN A]	4 nM
NC(=O)C(=O)NCCSSCCNC(=O)/C(Cc1ccc(O)c(Br)c1)=N/O [PSAMMAPLIN E]	330 nM
Cn1cc(C(=O)Cc2ccccc2)cc1C=C1C(=O)NC(=S)NC1=O	85000 nM
O=C(O)C(=O)NCCSSCCNC(=O)/C(Cc1ccc(O)c(Br)c1)=N/O	2 nM
Cn1cc(C(=O)c2ccccc2)cc1/C=C/C#N	70000 nM
CCOC(=O)NCCSSCCNC(=O)/C(Cc1ccc(O)c(Br)c1)=N/O	79 nM
Cn1cc(C(=O)Cc2ccccc2)cc1C=C1C(=O)NC(=O)NC1=O	104000 nM
COC(=O)NCCSSCCNC(=O)/C(Cc1ccc(O)c(Br)c1)=N/O [PSAMMAPLIN D]	44 nM

Molecular target: Histone deacetylase (Homo sapiens) (UniProt Q13547+O15379+Q9UBN7+Q92769+Q9UQL6+Q8WUI4+Q9BY41+Q96DB2+P56524+Q9UKV0+Q969S8)
Experiment: Percent inhibition against isolated Histone deacetylase at 30 uM
Type: protein assay
Conditions: not given

SMILES	inhibition
Cn1cc(C(=O)c2ccccc2)cc1C=C1C(=O)NC(=O)NC1=O	0%
Cn1cc(C(=O)c2ccccc2)cc1C=C1C(=O)NC(=S)NC1=O	0%

Molecular target: Histone deacetylase
Experiment: not given
Design: species or system Rattus norvegicus
Conditions: not given
Remark: another data set of the same source

SMILES	IC50
CN(C)c1ccc(C(=O)NCCCCCC(=O)NO)cc1	244 nM
CC(C)C[C@H]1C(=O)N[C@H](C(=O)NCCCCCC(=O)NO)Cc2ccc(cc2)OCCCC[C@H]1C(=O)OC(C)(C)C	2100 nM
O=C(CCCCCNC(=O)c1ccc(Cl)cc1)NO	369 nM
CN(C)c1ccc(C(=O)NCCCCCCCC(=O)NO)cc1	145 nM
O=C(CCCCCN1C(=O)c2ccccc2C1=O)NO	515 nM
O=C(CCCCCCC(=O)c1ccccc1)NO	270 nM
CN(C)c1ccc(C(=O)NCCCCC(=O)NO)cc1	> 10000 nM
CN(C)c1ccc(C(=O)NCCCCCCC(=O)NO)cc1	46 nM
O=C(CCCCCNC(=O)c1ccc(-c2ccccc2)cc1)NO	265 nM
O=C(CCCCCNC(=O)c1ccc([N+](=O)[O-])cc1)NO	1566 nM
CC(C)C[C@H]1C(=O)N2C(=O)[C@@H]1CCCCOc1ccc(cc1)C[C@H]2C(=O)NCCCCCC(=O)NO	38 nM

System: MDA-MB-435
Experiment: cells
Type: functional, cell-based
Conditions: Homo sapiens
Description: Inhibitory concentration against MDA-435 cells proliferation

SMILES	pIC50
O=C(CCCCCNC(=O)[C@H](Cc1ccccc1)N1C(=O)CCC1=O)NO	5.00
O=C(CCCCCCNC(=O)c1cc2ccccc2[nH]1)NO	6.82
CCC[C@H]1C(=O)N([C@@H](Cc2ccccc2)C(=O)NCCCCCC(=O)NO)C(=O)[C@@H]1CC(C)C	6.24
O=C(CCCCCCNC(=O)C1Cc2ccccc2O1)NO (stereo unspecified)	6.31
CC(C)C[C@@H]1CC(=O)N([C@@H](Cc2ccccc2)C(=O)NCCCCCC(=O)NO)C1=O	6.17
CCC[C@H]1C(=O)N([C@@H](Cc2ccc(OC)cc2)C(=O)NCCCCCC(=O)NO)C(=O)[C@@H]1CC(C)C	6.74
CC(C)C[C@H]1C(=O)N2C(=O)[C@@H]1CCCCOc1ccc(cc1)C[C@H]2C(=O)NCCCCCC(=O)NO	6.82

System: Plasmodium falciparum
Experiment: Inhibitory concentration against Plasmodium falciparum […]
Type: functional, organism-based
Conditions: not given

SMILES	IC50
CC[C@H](C)[C@@H]1NC(=O)[C@H](Cc2cn(OC)c3ccccc23)NC(=O)[C@H](CCCCCC(=O)OC)NC(=O)[C@H]2CCCCN2C1=O	0.21 µg/mL (≈ 0.336 µM)
CC[C@H](C)[C@@H]1NC(=O)[C@H](Cc2cn(OC)c3ccccc23)NC(=O)[C@H](CCCCCC(=O)C(C)F)NC(=O)[C@H]2CCCCN2C1=O (stereo partly specified)	0.028 µg/mL (≈ 0.0436 µM)
CC[C@H](C)[C@@H]1NC(=O)[C@H](Cc2cn(OC)c3ccccc23)NC(=O)[C@H](CCCCCCC(=O)OC)NC(=O)[C@H]2CCCCN2C1=O	0.5 µg/mL (≈ 0.782 µM)
CC[C@H](C)[C@@H]1NC(=O)[C@H](Cc2cn(OC)c3ccccc23)NC(=O)[C@H](CCCCC(=O)OC)NC(=O)[C@H]2CCCCN2C1=O	> 1 µg/mL
CCC(=O)C(F)CCCC[C@@H]1NC(=O)[C@H]2CCCCN2C(=O)[C@H]([C@@H](C)CC)NC(=O)[C@H](Cc2cn(OC)c3ccccc23)NC1=O (stereo partly specified)	0.7 µg/mL (≈ 1.09 µM)
CC[C@H](C)[C@@H]1NC(=O)[C@H](Cc2cn(OC)c3ccccc23)NC(=O)[C@H](CCCCCC(=O)NO)NC(=O)[C@H]2CCCCN2C1=O	0.00024 µg/mL (≈ 0.000383 µM)
CC[C@H](C)[C@@H]1NC(=O)[C@H](Cc2cn(OC)c3ccccc23)NC(=O)[C@H](CCCCCC(=O)C(C)O)NC(=O)[C@H]2CCCCN2C1=O (stereo partly specified)	0.022 µg/mL (≈ 0.0344 µM)
CC[C@H](C)[C@@H]1NC(=O)[C@H](Cc2cn(OC)c3ccccc23)NC(=O)[C@H](CCCCCC(=O)O)NC(=O)[C@H]2CCCCN2C1=O	> 1 µg/mL
CC[C@H](C)[C@@H]1NC(=O)[C@H](Cc2cn(OC)c3ccccc23)NC(=O)[C@H](CCCCCC(=O)C2CO2)NC(=O)[C@H]2CCCCN2C1=O (stereo partly specified)	< 0.015 µg/mL

System: not listed separately
Experiment: Inhibition of acetylation of histone-4 in human T-24 cancer cells
Conditions: not given

SMILES	EC
Nc1ccccc1NC(=O)/C=C/c1ccc(NS(=O)(=O)c2ccc(-c3ccccc3)cc2)cc1	15 µM
Nc1ccccc1NC(=O)/C=C/c1ccc(S(=O)(=O)Nc2ccc(-c3ccccc3)cc2)cc1	5 µM
